Drawing on patent publication US11548875B2, “Inhibitor compounds for male contraception” (University of Washington, priority 2018, dated 2023), this text covers IC50 for 26 compounds.

Bounds are passed on as bounds.

For one assay, the target named is T1, ALDH2 (Homo sapiens, UniProt P05091).
T1 construct: histidine-tag (N); made in house; host or cells: bacterial expression (pETite vector, IPTG induction)
T1 sequence (P05091 18-517): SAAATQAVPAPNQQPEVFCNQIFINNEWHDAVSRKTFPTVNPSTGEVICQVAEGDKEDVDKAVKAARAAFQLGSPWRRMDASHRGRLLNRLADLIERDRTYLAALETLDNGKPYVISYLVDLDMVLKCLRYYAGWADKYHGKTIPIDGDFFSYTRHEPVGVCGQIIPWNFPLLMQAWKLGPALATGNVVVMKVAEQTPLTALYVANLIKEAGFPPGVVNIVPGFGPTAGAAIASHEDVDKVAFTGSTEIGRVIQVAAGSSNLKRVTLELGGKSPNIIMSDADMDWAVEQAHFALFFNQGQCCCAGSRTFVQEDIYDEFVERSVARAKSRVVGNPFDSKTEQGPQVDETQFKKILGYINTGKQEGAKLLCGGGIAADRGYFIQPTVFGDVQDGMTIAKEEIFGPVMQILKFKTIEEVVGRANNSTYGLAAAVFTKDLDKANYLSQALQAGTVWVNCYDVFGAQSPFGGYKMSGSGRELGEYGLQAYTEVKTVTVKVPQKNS
Put plainly: Purified ALDH2 assay with propanal, NADH fluorescence. The class given is biochemical. Particulars: purified enzyme. The method in brief:
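His-tagged human ALDH2 expressed in bacteria and purified. 2 μg enzyme incubated with 20 μM propanal and varying inhibitor concentrations at room temperature. Activity read as NADH fluorescence (Ex 350/Em 460 nm), with initial velocity from two consecutive readings over 1 minute.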

The target of a further assay is T2, ALDH1A2 (Homo sapiens, UniProt O94788).
T2 sequence (O94788 1-518): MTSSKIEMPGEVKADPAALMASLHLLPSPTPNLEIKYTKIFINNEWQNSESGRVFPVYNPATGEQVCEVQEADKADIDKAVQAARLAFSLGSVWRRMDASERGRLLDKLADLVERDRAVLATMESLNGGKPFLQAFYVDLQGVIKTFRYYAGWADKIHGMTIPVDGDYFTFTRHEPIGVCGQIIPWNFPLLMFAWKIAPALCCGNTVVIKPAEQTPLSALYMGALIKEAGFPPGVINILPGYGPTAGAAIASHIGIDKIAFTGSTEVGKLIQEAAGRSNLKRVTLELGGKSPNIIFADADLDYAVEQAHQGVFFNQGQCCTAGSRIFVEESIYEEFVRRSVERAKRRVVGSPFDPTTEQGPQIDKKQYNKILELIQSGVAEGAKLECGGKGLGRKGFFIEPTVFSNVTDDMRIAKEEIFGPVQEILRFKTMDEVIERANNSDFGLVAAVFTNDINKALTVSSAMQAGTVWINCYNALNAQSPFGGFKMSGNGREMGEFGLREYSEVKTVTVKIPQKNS
Nature of the assay: Inhibitor screening using purified enzymes: ALDH1A2 activity, retinoic acid production by HPLC (5 uM initial screen, then IC50). The class given is biochemical. More on the design: histidine-tag (C); made in house; host or cells: bacterial expression (pET28 vector, IPTG induction). The following applies: purified enzyme. The method in brief: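 Purified His-tagged human enzymes in 10 mM HEPES pH 8.0, 150 mM KCl, 2 mM EDTA with 2 mM NAD, all-trans-retinal substrate; retinoic acid quantified by HPLC. ALDH1A2 initial screen: 1 μg enzyme, 5 μM retinal, 5 μM inhibitor, 15 min, 37° C; IC50 runs: 0.5 μg enzyme, 0.5 μg retinal, 5 min, 37° C.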

For `O=C(c1cccc(Cl)c1)N1CCN(c2ccc([N+](=O)[O-])c(N3CCCC3)c2)CC1` [Compound 341, 3-Chlorophenyl-1-{4-[4-nitro-3-(pyrrolidin-1-yl)phenyl]piperazin-1-yl}methanone], the IC50 against ALDH2 is over 100 µM; against ALDH1A2, 1.45 µM.

In the case of `Cc1cc(C(=O)N2CCN(c3ccc([N+](=O)[O-])c(N4CCCC4)c3)CC2)sc1C` [Compound 327, {4-[4-Nitro-3-(pyrrolidin-1-yl)phenyl]piperazin-1-yl}(4,5-dimethylthiophen-2-yl)methanone], the IC50 on ALDH2 was found to be 79.8 µM; at ALDH1A2 it was 0.313 µM.

`O=C(c1ccccc1)N1CCN(c2ccc([N+](=O)[O-])c(N3CCCC3)c2)CC1` [Compound 339, Phenyl-1-{4-[4-nitro-3-(pyrrolidin-1-yl)phenyl]piperazin-1-yl}methanone]: the IC50 is 48.1 µM at ALDH2 and 0.837 µM against ALDH1A2.

For `CS(=O)(=O)c1ccc(-c2nn(-c3ccccc3)cc2C(=O)Nc2cccc(F)c2)cc1` [Compound 178, 3-(4-(Methylsulfonyl)phenyl)-N-(3-fluorophenyl)-1-phenyl-1H-pyrazole-4-carboxamide], the figures for the IC50 at ALDH2 and against ALDH1A2 were 20.9 µM and 0.192 µM, respectively.

On to `O=C(c1ccc(F)s1)N1CCN(c2ccc([N+](=O)[O-])c(N3CCCC3)c2)CC1` [Compound 334, {4-[4-Nitro-3-(pyrrolidin-1-yl)phenyl]piperazin-1-yl}(5-fluorothiophen-2-yl)methanone], for which the half-maximal inhibitory concentration (IC50) is over 100 µM at ALDH2 and 1.33 µM at ALDH1A2.

With `Cn1cccc1C(=O)N1CCN(c2ccc(NC(=O)CCl)c(N3CCCC3)c2)CC1` [Compound 372, 1-[4-(4-N-Chloroacetyl-3-(pyrrolidin-1-yl)phenyl]piperazin-1-yl](1-methyl-1H-pyrrol-2-yl)methanone], the IC50 against ALDH2 worked out at 3.5 µM; at ALDH1A2, 3.6 µM.

Regarding `N#Cc1ccc(-n2cc(C(=O)Nc3cccc(F)c3)c(-c3ccc(NC(=O)C(Cl)Cl)cc3)n2)cc1` [Compound 316a, 3-(4-Dichloroacetamidophenyll)-N-(3-fluorophenyl)-1-(4-cyanophenyl)-1H-pyrazole-4-carboxamide], the IC50 against ALDH2 is 4 µM; on ALDH1A2, 0.037 µM.

For `O=Cc1cn(-c2ccccc2)nc1-c1ccc(O)cc1` [Cmpd 34], the IC50 on ALDH2 was 18.2 µM; on ALDH1A2 it was 1.73 µM.

As to “3-(4-Acryloylphenyl)-1-phenyl-1H-pyrazole-4-carbaldehyde [Compound 309]”, the IC50 on ALDH2 is over 0.16 µM; at ALDH1A2, 0.005 µM.

For the compound `CS(=O)(=O)c1ccc(-c2nn(-c3ccccc3)cc2C(=O)Nc2cccc(Cl)c2)cc1` [Compound 219, 3-(4-(Methylsulfonyl)phenyl)-N-(3-chlorophenyl)-1-phenyl-1H-pyrazole-4-carboxamide], the IC50 at ALDH2 was over 25 µM; at ALDH1A2, 0.606 µM.

With `Cn1cccc1C(=O)N1CCN(c2ccc(-c3ccc([N+](=O)[O-])cc3)c(N3CCCCC3)c2)CC1` [Compound 373], the IC50 is over 100 µM at ALDH2 and 2.13 µM at ALDH1A2.

Regarding `CS(=O)(=O)c1ccc(-c2nn(-c3cccc(C#N)c3)cc2C(=O)Nc2ccc(F)c(F)c2)cc1` [Compound 269, 1-(3-Cyanophenyl)-N-(3,4-difluorophenyl)-3-[4-(methylsulfonyl)phenyl]-1H-pyrazole-4-carboxamide], the results for the IC50 against ALDH2 and on ALDH1A2 were 67.7 µM and 0.238 µM, respectively.

With `CS(=O)(=O)c1ccc(-c2nn(-c3ccc(F)cc3)cc2C(=O)Nc2cccc(F)c2)cc1` [Compound 241, N-(3-Fluorophenyl)-3-[4-(methylsulfonyl)phenyl]-1-(4-fluorophenyl)-1H-pyrazole-4-carboxamide], the IC50 against ALDH2 is 16.6 µM; at ALDH1A2 it was 0.092 µM.

Consider `CS(=O)(=O)c1ccc(-c2nn(-c3cccc(C#N)c3)cc2C(=O)Nc2cccc(F)c2)cc1` [Compound 268, 1-(3-Cyanophenyl)-N-(3-fluorophenyl)-3-[4-(methylsulfonyl)phenyl]-1H-pyrazole-4-carboxamide], for which the IC50 was 83.7 µM on ALDH2 and 0.84 µM at ALDH1A2.

Regarding `Cn1cccc1C(=O)N1CCN(c2ccc([N+](=O)[O-])c(N3CCCC3)c2)CC1` [Compound 343, [4-(4-Nitro-3-(pyrrolidin-1-yl)phenyl)piperazin-1-yl](1-methyl-1H-pyrrol-2-yl)methanone], the IC50 at ALDH2 was determined as 97.5 µM; on ALDH1A2, 1.94 µM.

For the compound `CC(=O)n1cccc1C(=O)N1CCN(c2ccc([N+](=O)[O-])c(N3CCCC3)c2)CC1` [Compound 347, {4-[4-Nitro-3-(pyrrolidin-1-yl)phenyl]piperazin-1-yl}(1-acetyl-pyrrol-2yl)methanone], the IC50 on ALDH2 is 61.6 µM; at ALDH1A2, 0.042 µM.

Regarding `O=C(c1ccc[nH]1)N1CCN(c2ccc([N+](=O)[O-])c(N3CCCC3)c2)CC1` [Compound 344, {4-[4-Nitro-3-(pyrrolidin-1-yl)phenyl]piperazin-1-yl}(1H-pyrrol-2-yl)methanone], the IC50 came to 48.6 µM at ALDH2 and 0.264 µM at ALDH1A2.

As for `CC(=O)Nc1ccsc1C(=O)N1CCN(c2ccc([N+](=O)[O-])c(N3CCCC3)c2)CC1` [Compound 332], the half-inhibitory concentration (IC50) against ALDH2 was determined as 58.3 µM; at ALDH1A2, 0.388 µM.

`COc1ccsc1C(=O)N1CCN(c2ccc([N+](=O)[O-])c(N3CCCC3)c2)CC1` [Compound 329, {4-[4-Nitro-3-(pyrrolidin-1-yl)phenyl]piperazin-1-yl}(3-methoxythiophen-2-yl)methanone]: the IC50 at ALDH2 stood at 86.4 µM; against ALDH1A2, 0.079 µM.

`COc1ccc(C(=O)N2CCN(c3ccc([N+](=O)[O-])c(N4CCCC4)c3)CC2)cc1` [Compound 345, 4-Methoxyphenyl-1-{4-[4-nitro-3-(pyrrolidin-1-yl)phenyl]piperazin-1-yl}methanone]: the figures for the IC50 against ALDH2 and on ALDH1A2 were over 100 µM and 3.99 µM, respectively.

Consider `O=C(c1ccc(Cl)cc1)N1CCN(c2ccc([N+](=O)[O-])c(N3CCCC3)c2)CC1` [Compound 342, 4-Chlorophenyl-1-{4-[4-nitro-3-(pyrrolidin-1-yl)phenyl]piperazin-1-yl}methanone], for which the IC50 against ALDH2 was over 100 µM; against ALDH1A2, 4.56 µM.

Take `CS(=O)(=O)c1ccc(-c2nn(-c3ccc(Cl)cc3)cc2C(=O)Nc2ccccc2O)cc1` [Compound 233, N-(2-Hydroxyphenyl)-3-[4-(methylsulfonyl)phenyl]-1-(4-chloropheny)-1H-pyrazole-4-carboxamide]: the half-inhibitory concentration (IC50) turned out to be 87.2 µM at ALDH2 and 0.795 µM on ALDH1A2.

For `CS(=O)(=O)c1ccc(-c2nn(-c3ccc(OC(F)(F)F)cc3)cc2C(=O)Nc2cccc(F)c2)cc1` [Compound 258, N-(3-Fluorophenyl)-1-(4-trifluoromethoxypheny)-3-[4-(methylsulfonyl)phenyl]-1H-pyrazole-4-carboxamide], the figures for the half-inhibitory concentration (IC50) at ALDH2 and against ALDH1A2 were 100 µM and 0.112 µM, respectively.

As for `CS(=O)(=O)c1ccc(-c2nn(-c3cccc(F)c3)cc2C(=O)Nc2cccc(C(F)(F)F)c2)cc1` [Compound 266, 1-(3-Fluorophenyl)-N-(3-trifluoromethylphenyl)-3-[4-(methylsulfonyl)phenyl]-1H-pyrazole-4-carboxamide], the IC50 against ALDH2 was found to be 100 µM; against ALDH1A2, 0.029 µM.

For the compound `CCS(=O)(=O)c1ccc(-c2nn(-c3ccccc3)cc2C(=O)Nc2cccc(F)c2)cc1` [Compound 223, 3-(4-(Ethylsulfonyl)phenyl)-N-(3-fluorophenyl)-1-phenyl-1H-pyrazole-4-carboxamide], the results for the IC50 on ALDH2 and against ALDH1A2 were 133 µM and 0.208 µM, respectively.

On to `CS(=O)(=O)c1ccc(-c2nn(-c3ccc(C#N)cc3)cc2C(=O)Nc2cccc(C(F)(F)F)c2)cc1` [Compound 262, 1-(4-Cyanophenyl)-N-(3-trifluoromethylphenyl)-3-[4-(methylsulfonyl)phenyl]-1H-pyrazole-4-carboxamide], for which the 50% inhibitory concentration (IC50) against ALDH2 was 16.7 µM; against ALDH1A2, 0.352 µM.
